Values quoted from earlier work, collected in US8673945B2, “Solid pharmaceutical composition comprising amlodipine and losartan” (Hanmi Science Co., Ltd, priority 2009, dated 2014).

reduction of Cmax of losartan after food ingestion: about 10%
SMILES: CCCCc1nc(Cl)c(CO)n1Cc1ccc(-c2ccccc2-c2nn[nH]n2)cc1 [losartan, 2-butyl-4-chloro-1-[[2′-(1H-tetrazol-5-yl)[1,1′-biphenyl]-4-yl]methyl]-1H-imidazol-5-methanol]
